These compounds were tested against T1, human recombinant mGluR5 (Homo sapiens, UniProt P41594) (assay: positive modulation of mGluR5, calcium based FLIPR assay in HEK 293 cells). Settings: HEK 293 cell line expressing human recombinant mGluR5; EC50 of the modulation of the glutamate response (glutamate approx. 5% basal stimulation); peak height of Ca release fluorescence signal.
T1 construct: expressed in transfected cells; host or cells: HEK 293 cell line cultured with tetracycline, hygromycin and geneticin; tetracycline removed 3-7 days before the assay
T1 sequence (P41594 21-1212): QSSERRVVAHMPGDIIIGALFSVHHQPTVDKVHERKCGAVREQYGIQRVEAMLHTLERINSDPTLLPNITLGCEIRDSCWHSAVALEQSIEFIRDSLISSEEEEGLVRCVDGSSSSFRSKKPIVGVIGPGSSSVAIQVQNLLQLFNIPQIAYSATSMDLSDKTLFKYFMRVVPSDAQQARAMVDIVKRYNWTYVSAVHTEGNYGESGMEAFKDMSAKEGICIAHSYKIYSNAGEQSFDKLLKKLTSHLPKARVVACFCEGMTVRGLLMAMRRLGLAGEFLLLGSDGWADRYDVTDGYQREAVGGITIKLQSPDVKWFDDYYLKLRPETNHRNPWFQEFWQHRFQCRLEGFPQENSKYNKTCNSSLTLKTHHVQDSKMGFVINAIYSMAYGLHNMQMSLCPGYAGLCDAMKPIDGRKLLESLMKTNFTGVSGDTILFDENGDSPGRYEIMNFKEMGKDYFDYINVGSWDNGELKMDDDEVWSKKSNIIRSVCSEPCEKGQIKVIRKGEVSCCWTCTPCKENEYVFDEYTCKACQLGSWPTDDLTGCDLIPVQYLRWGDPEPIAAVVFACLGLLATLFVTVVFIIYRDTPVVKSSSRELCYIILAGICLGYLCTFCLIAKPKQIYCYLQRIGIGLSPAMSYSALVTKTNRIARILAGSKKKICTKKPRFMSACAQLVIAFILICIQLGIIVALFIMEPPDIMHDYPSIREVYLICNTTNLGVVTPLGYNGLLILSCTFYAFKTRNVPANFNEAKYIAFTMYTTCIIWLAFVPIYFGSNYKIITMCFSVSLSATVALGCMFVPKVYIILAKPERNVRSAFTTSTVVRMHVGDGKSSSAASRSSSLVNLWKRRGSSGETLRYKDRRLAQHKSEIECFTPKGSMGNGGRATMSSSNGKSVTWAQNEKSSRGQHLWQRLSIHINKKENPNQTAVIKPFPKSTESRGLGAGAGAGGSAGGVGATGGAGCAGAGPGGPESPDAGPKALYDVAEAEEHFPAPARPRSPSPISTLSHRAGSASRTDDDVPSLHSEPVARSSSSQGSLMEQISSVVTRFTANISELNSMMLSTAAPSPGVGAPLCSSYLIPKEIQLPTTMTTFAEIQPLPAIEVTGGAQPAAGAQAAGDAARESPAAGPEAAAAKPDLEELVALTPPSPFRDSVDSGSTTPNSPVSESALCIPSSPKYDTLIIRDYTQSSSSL
Description: The positive modulation of mGluR5 is measured in a HEK 293 cell line expressing human recombinant mGluR5 and is detected with calcium based FLIPR assay. The cells are cultured with DMEM supplemented with 10% FCS, 2 μg/mL tetracycline, 100 μg/mL hygromycin and 500 μg/mL gneticin. The cell culture media is exchanged for tetracycline-free cell culture media 3-7 days before the assay. One day before the assay the cell culture medium is exchanged to DMEM without glutamine and phenol red and supplemented with 10% FCS, 100 μg/mL hygromycin and 500 μg/mL geneticin. On the assay day, the medium of the subconfluent cultures is removed and the cells are detached by addition of 2.5 ml EDTA (0.02%) per 175 cm2 culture flask for 1 minute. The cells are resuspend in Ringer solution (140 mM NaCl, 5 mM KCl, 2.5 mM CaCl2, 1.5 mM MgCl2, 5 mM Glucose, 10 mM Hepes; adjusted to pH 7.4 with NaOH), pooled and Ringer solution added to adjust the volume to 50 mL. The cell suspension is centrifuged for […] at 1500 U/min (425 g). The supernatant is removed and the cells washed a second time with 50 ml fresh Ringer solution and centrifuged again as before. The supernatant is again removed and the pellet resuspended in Ringer solution to 1,000,000 cells/ml (1×10^6 cells/mL). The cells are plated onto BD BioCoat Poly-D-Lysine 384 well plates (20.000 cells/well; 20 μl/well). The lid covered plates are then incubated until use at 37° C./10% CO2. For dye loading, 20 μl of Calcium-4 assay kit solution (prepared according to the manufacturer's description in Ringer solution) are added to the cells and the plates are incubated for 80 min 37° C. and then 10 min at room temperature.
Controls, Compound Dilution and Assay Execution:
Each assay plate contained wells with “high” and “low” controls:
Low controls 1% DMSO/ringer solution+basal glutamate activation (defined as 100% CTL).
High controls 10 μM CDPPB+basal glutamate activation (defined as 200% CTL).
Test compounds are dissolved and diluted in DMSO to 100-fold the desired concentrations. In a second step, the compounds are diluted in Ringer solution such that the compounds are 4-fold more concentrated than the desired final assay concentration. The final DMSO concentration was 1%.
20 μl of each compound solution are then transferred to the assay plate and the Ca2+ kinetic is measured to determine any intrinsic compound activity. After 5 min incubation in the FLIPR device, the second stimulation with 20 μl of glutamate in Ringer solution (glutamate concentration adjusted to approximately 5% basal stimulation of the maximal possible glutamate effect) is added and the kinetic Ca2+ response of the wells was measured for the modulation effect.
The peak height of the Ca release related fluorescence signal (9-66) is used for the EC50. The EC50 of the modulation is calculated over a nonlinear regression with GraphPad Prism (Table 1).
An EC50 of 440 nM was found for COc1nccc(N2CCN(C(=O)Cn3nc(-c4ccc(F)cc4)nc3-c3ccc(F)cc3)CC2)n1 [Example 07.03.19.] in this work. An EC50 of 467 nM was found for O=C(Cn1nc(-c2ccc(F)cc2)nc1-c1ccc(F)cc1)N1CCN(c2ccc(Br)cn2)CC1 [Example 07.03.20.] in this work. An EC50 of 278 nM was found for O=C(Cn1nc(-c2ccc(F)cc2)nc1-c1ccc(F)cc1)N1CCN(c2nccc(C(F)(F)F)n2)CC1 [Example 07.03.21.] in this work. An EC50 of 476 nM was found for CN(C)c1nccc(N2CCN(C(=O)Cn3nc(-c4ccc(F)cc4)nc3-c3ccc(F)cc3)CC2)n1 [Example 07.03.22.] in this work. An EC50 of 1010 nM was found for CN(C)c1cc(N2CCN(C(=O)Cn3nc(-c4ccc(F)cc4)nc3-c3ccc(F)cc3)CC2)ccn1 [Example 07.03.23.] in this work. An EC50 of 254 nM was found for COc1cc(N2CCN(C(=O)Cn3nc(-c4ccc(F)cc4)nc3-c3ccc(F)cc3)CC2)ccn1 [Example 07.03.24.] in this work. An EC50 of 177 nM was found for CCc1cc(N2CCN(C(=O)Cn3nc(-c4ccc(F)cc4)nc3-c3ccc(F)cc3)CC2)ncn1 [Example 07.03.26.] in this work. An EC50 of 1210 nM was found for CCc1cc(N2CCN(C(=O)Cn3nc(-c4ccc(F)cc4)nc3-c3ccc(F)cc3)CC2)nc(Cl)n1 [Example 07.03.27.] in this work. An EC50 of 319 nM was found for Nc1cc(N2CCN(C(=O)Cn3nc(-c4ccc(F)cc4)nc3-c3ccc(F)cc3)CC2)ncn1 [Example 07.03.28.] in this work. An EC50 of 25 nM was found for COc1cnc(N2CCN(C(=O)Cn3nc(-c4ccc(F)cc4)nc3-c3ccc(F)cc3)CC2)nc1 [Example 07.04.001., 2-(3,5-Bis-(4-fluoro-phenyl)-(1,2,4)triazol-1-yl)-1-(4-(5-methoxy-pyrimidin-2-yl)-piperazin-1-yl)-ethanone] in this work. An EC50 of 2000 nM was found for COc1ccc(Cl)cc1N1CCN(C(=O)Cn2nc(-c3ccc(F)cc3)nc2-c2ccc(F)cc2)CC1 [Example 07.04.002.] in this work. An EC50 of 259 nM was found for O=C(Cn1nc(-c2ccc(F)cc2)nc1-c1ccc(F)cc1)N1CCN(c2ccncn2)CC1 [Example 07.04.003.] in this work. An EC50 of 600 nM was found for O=C(Cn1nc(-c2ccc(F)cc2)nc1-c1ccc(F)cc1)N1CCN(c2cccnc2)CC1 [Example 07.04.004.] in this work. An EC50 of 400 nM was found for O=C(Cn1nc(-c2ccc(F)cc2)nc1-c1ccc(F)cc1)N1CCN(c2cc3ccccc3cn2)CC1 [Example 07.04.005.] in this work. An EC50 of 899 nM was found for O=C(Cn1nc(-c2ccc(F)cc2)nc1-c1ccc(F)cc1)N1CCN(c2nccc3ccccc23)CC1 [Example 07.04.006.] in this work. An EC50 of 1350 nM was found for N#Cc1ccccc1N1CCN(C(=O)Cn2nc(-c3ccc(F)cc3)nc2-c2ccc(F)cc2)CC1 [Example 07.04.007.] in this work. An EC50 of 117 nM was found for O=C(Cn1nc(-c2ccc(F)cc2)nc1-c1ccc(F)cc1)N1CCN(c2cnccn2)CC1 [Example 07.04.008.] in this work. An EC50 of 166 nM was found for O=C(Cn1nc(-c2ccc(F)cc2)nc1-c1ccc(F)cc1)N1CCN(c2ccc(Cl)nn2)CC1 [Example 07.04.009.] in this work. An EC50 of 1200 nM was found for O=C(Cn1nc(-c2ccc(F)cc2)nc1-c1ccc(F)cc1)N1CCN(c2ccccc2O)CC1 [Example 07.04.010.] in this work. An EC50 of 1570 nM was found for N#Cc1ccc(N2CCN(C(=O)Cn3nc(-c4ccc(F)cc4)nc3-c3ccc(F)cc3)CC2)nc1 [Example 07.04.11.] in this work. An EC50 of 176 nM was found for O=C(Cn1nc(-c2ccc(F)cc2)nc1-c1ccc(F)cc1)N1CCN(c2ccc(Cl)cn2)CC1 [Example 07.04.12.] in this work. An EC50 of 1210 nM was found for O=C(Cn1nc(-c2ccc(F)cc2)nc1-c1ccc(F)cc1)N1CCN(c2ccccc2F)CC1 [Example 07.04.13.] in this work. An EC50 of 467 nM was found for COc1cccc(N2CCN(C(=O)Cn3nc(-c4ccc(F)cc4)nc3-c3ccc(F)cc3)CC2)c1 [Example 07.04.014.] in this work. An EC50 of 364 nM was found for O=C(Cn1nc(-c2ccc(F)cc2)nc1-c1ccc(F)cc1)N1CCN(c2cc(Cl)ccn2)CC1 [Example 07.04.015.] in this work. An EC50 of 62 nM was found for COc1cc(N2CCN(C(=O)Cn3nc(-c4ccc(F)cc4)nc3-c3ccc(F)cc3)CC2)ncn1 [Example 07.04.016.] in this work. An EC50 of 421 nM was found for COc1cnnc(N2CCN(C(=O)Cn3nc(-c4ccc(F)cc4)nc3-c3ccc(F)cc3)CC2)c1 [Example 07.04.017.] in this work. An EC50 of 200 nM was found for O=C(Cn1nc(-c2ccccc2)nc1-c1ccccc1)N1CCN(c2ncccn2)CC1 [Example 07.04.018.] in this work. An EC50 of 1090 nM was found for COc1cc(N2CCN(C(=O)Cn3nc(-c4ccccc4)nc3-c3ccccc3)CC2)ncn1 [Example 07.04.019.] in this work. An EC50 of 388 nM was found for COc1ccc(-c2nc(C3CCCCC3)n(CC(=O)N3CCN(c4ncccn4)CC3)n2)c(F)c1 [Example 07.04.020.] in this work. An EC50 of 647 nM was found for COc1ccc(-c2nc(C3CCCCC3)n(CC(=O)N3CCN(c4cc(C)ccn4)CC3)n2)c(F)c1 [Example 07.04.021.] in this work. An EC50 of 1040 nM was found for COc1ccc(-c2nc(C3CCCCC3)n(CC(=O)N3CCN(c4ccccn4)CC3)n2)c(F)c1 [Example 07.04.022.] in this work. An EC50 of 370 nM was found for O=C(Cn1nc(-c2cccc(F)c2)nc1-c1cccc(F)c1)N1CCN(c2ncccn2)CC1 [Example 07.04.023.] in this work. An EC50 of 945 nM was found for Cc1ccnc(N2CCN(C(=O)Cn3nc(-c4cccc(F)c4)nc3-c3cccc(F)c3)CC2)c1 [Example 07.04.024.] in this work. An EC50 of 868 nM was found for COc1cccc(-c2nc(-c3ccc(F)cc3)nn2CC(=O)N2CCN(c3cc(C)ccn3)CC2)c1 [Example 07.04.025.] in this work. An EC50 of 236 nM was found for COc1cccc(-c2nc(-c3ccc(F)cc3)nn2CC(=O)N2CCN(c3ncccn3)CC2)c1 [Example 07.04.026.] in this work. An EC50 of 38 nM was found for COc1cccc(-c2nc(-c3ccc(F)cc3)n(CC(=O)N3CCN(c4cc(C)ccn4)CC3)n2)c1 [Example 07.04.027.] in this work. An EC50 of 30 nM was found for COc1cccc(-c2nc(-c3ccc(F)cc3)n(CC(=O)N3CCN(c4ncccn4)CC3)n2)c1 [Example 07.04.028.] in this work. An EC50 of 1560 nM was found for O=C(Cn1nc(-c2ccc(F)cc2)nc1C1CCCCC1)N1CCN(c2ccccn2)CC1 [Example 07.04.029.] in this work. An EC50 of 1420 nM was found for Cc1ccnc(N2CCN(C(=O)Cn3nc(-c4ccc(F)cc4)nc3C3CCCCC3)CC2)c1 [Example 07.04.030.] in this work. An EC50 of 661 nM was found for O=C(Cn1nc(-c2ccc(F)cc2)nc1C1CCCCC1)N1CCN(c2ncccn2)CC1 [Example 07.04.031.] in this work. An EC50 of 39 nM was found for COc1ccc(-c2nc(-c3ccc(F)cc3)n(CC(=O)N3CCN(c4cc(C)ccn4)CC3)n2)cc1 [Example 07.04.032.] in this work. An EC50 of 37 nM was found for COc1ccc(-c2nc(-c3ccc(F)cc3)n(CC(=O)N3CCN(c4ncccn4)CC3)n2)cc1 [Example 07.04.033.] in this work. An EC50 of 52 nM was found for COc1ccc(-c2nc(-c3ccc(F)cc3)n(CC(=O)N3CCN(c4cc(OC)ncn4)CC3)n2)cc1 [Example 07.04.034.] in this work. An EC50 of 40 nM was found for COc1ccc(-c2nc(-c3ccc(F)cc3)n(CC(=O)N3CCN(c4ccccn4)CC3)n2)cc1 [Example 07.04.035.] in this work. An EC50 of 32 nM was found for COc1ccc(-c2nc(-c3ccc(F)cc3)n(CC(=O)N3CCN(c4ncc(Br)cn4)CC3)n2)cc1 [Example 07.04.036.] in this work. An EC50 of 114 nM was found for COc1ccc(-c2nc(-c3ccc(F)cc3)n(CC(=O)N3CCN(c4cccnn4)CC3)n2)cc1 [Example 07.04.037.] in this work. An EC50 of 23 nM was found for COc1ccc(-c2nc(-c3ccc(F)cc3)n(CC(=O)N3CCN(c4ncc(Cl)cn4)CC3)n2)cc1 [Example 07.04.038.] in this work. An EC50 of 30 nM was found for COc1ccc(-c2nc(-c3ccc(F)cc3)n(CC(=O)N3CCN(c4cc(OC)ccn4)CC3)n2)cc1 [Example 07.04.039.] in this work. An EC50 of 33 nM was found for COc1ccc(-c2nc(-c3ccc(F)cc3)nn2CC(=O)N2CCN(c3ncccn3)CC2)cc1 [Example 07.04.040.] in this work. An EC50 of 113 nM was found for COc1ccc(-c2nc(-c3ccc(F)cc3)nn2CC(=O)N2CCN(c3cc(C)ccn3)CC2)cc1 [Example 07.04.041.] in this work. An EC50 of 148 nM was found for COc1ccc(-c2nc(-c3ccc(F)cc3)nn2CC(=O)N2CCN(c3cc(OC)ncn3)CC2)cc1 [Example 07.04.042.] in this work. An EC50 of 334 nM was found for COc1ccc(-c2nc(-c3ccc(F)cc3)nn2CC(=O)N2CCN(c3cccnn3)CC2)cc1 [Example 07.04.043.] in this work. An EC50 of 88 nM was found for COc1ccc(-c2nc(-c3ccc(F)cc3)nn2CC(=O)N2CCN(c3ncc(Br)cn3)CC2)cc1 [Example 07.04.044.] in this work. An EC50 of 80 nM was found for COc1ccc(-c2nc(-c3ccc(F)cc3)nn2CC(=O)N2CCN(c3ncc(Cl)cn3)CC2)cc1 [Example 07.04.045.] in this work.
